Legend:
[1] = Transport (permeability) of ginsenosides in CaCo-2 cell monolayers; type: in vitro ADME; conditions: human, Caco-2, Efflux ratio (ER)
Experimental: CaCo-2 cells (passage no 41–43) were seeded onto collagen-coated permeable support (1.0 μm pore size) in a 24-well plate at a density of 2.5 × 10^4 cells/insert and cultured for 21 days in Dulbecco’s modified eagle’s medium supplemented with 10% fetal bovine serum, 1% non-essential amino acids, and 1% penicillin-streptomycin at 37 °C in a humidified atmosphere (5% CO2/95% air). After confirming that the transepithelial electrical resistance (TEER) of the CaCo-2 cell monolayer was over 400 Ω·cm^2, Apical to basal (A to B) transport and B to A transport of ginsenosides using 50 µM, GRb1 was investigated as previously described. The same permeability study was performed using 50 µM GRb2, GRc, GRd, GRg3, GRh2, GF2, CK, PPD, GRe, GRf, GRg1, GRh1, GF1, or PPT.
(§1) For the transport study of ginsenosides in CaCo-2 cells and LLC-PK1-P-gp cells, the ginsenoside transport rate in the A to B or B to A directions was calculated from the slope of the regression line from the mean transported amounts versus time plot. The apparent permeability (Papp) was calculated using Equation (1). (1) Papp (×10^−6 cm/s)=transport rate (nmol/min)/concentration(μM)×area(cm^2)×60s
(§2) The efflux ratio was calculated by dividing the Papp of ginsenosides from the B to A direction by that from the A to B direction.

[2] = set-up: method as in PMID 34575573; conditions: mice, LAB supplementation (Lacto-fit) for two weeks; cited from earlier work
LAB = assay: In vitro RGE fermentation with LAB; type: in vitro ADME; conditions: RGE incubated with LAB (1 billion CFU) for 7 days at 37 °C; result in words
Experimental: To identify the effects of LAB on ginsenoside metabolism, an in vitro fermentation study was performed according to the method of Jeon et al., with slight modifications. Briefly, RGE (10 mL, 1 pouch) and 2 g LAB (containing 1 billion CFU) were suspended in 10 mL autoclaved MRS broth (550 mg broth powder dissolved in 10 mL water). For the 15 ginsenosides, individual ginsenosides (10 μM each) and 2 g of LAB were suspended in 20 mL of autoclaved MRS broth (550 mg broth powder dissolved in 20 mL water). The mixture was incubated for 7 days in a shaking incubator at 37 °C and 300 rpm, and a 0.1 mL aliquot of the incubation mixture was collected on days 0, 3, 5, and 7. The incubation medium was diluted 100-fold with distilled water and stored at −80 °C to analyze ginsenosides using the LC-MS/MS system.
To measure the metabolic activity of ginsenosides, the formation rate of ginsenosides (pmol/day) was calculated by dividing the slope of the regression line by the amount of deglycosylated ginsenosides versus the incubation time plot by the initial concentration of individual ginsenosides.

P-gp = target: T1, P-gp (Homo sapiens, UniProt P08183); assay: Transport of ginsenosides in P-gp-overexpressing LLC-PK1-P-gp cells; type: in vitro ADME
T1 construct: host or cells: LLC-PK1-P-gp cells (passage no. 25–28)
T1 sequence (P08183 whole entry): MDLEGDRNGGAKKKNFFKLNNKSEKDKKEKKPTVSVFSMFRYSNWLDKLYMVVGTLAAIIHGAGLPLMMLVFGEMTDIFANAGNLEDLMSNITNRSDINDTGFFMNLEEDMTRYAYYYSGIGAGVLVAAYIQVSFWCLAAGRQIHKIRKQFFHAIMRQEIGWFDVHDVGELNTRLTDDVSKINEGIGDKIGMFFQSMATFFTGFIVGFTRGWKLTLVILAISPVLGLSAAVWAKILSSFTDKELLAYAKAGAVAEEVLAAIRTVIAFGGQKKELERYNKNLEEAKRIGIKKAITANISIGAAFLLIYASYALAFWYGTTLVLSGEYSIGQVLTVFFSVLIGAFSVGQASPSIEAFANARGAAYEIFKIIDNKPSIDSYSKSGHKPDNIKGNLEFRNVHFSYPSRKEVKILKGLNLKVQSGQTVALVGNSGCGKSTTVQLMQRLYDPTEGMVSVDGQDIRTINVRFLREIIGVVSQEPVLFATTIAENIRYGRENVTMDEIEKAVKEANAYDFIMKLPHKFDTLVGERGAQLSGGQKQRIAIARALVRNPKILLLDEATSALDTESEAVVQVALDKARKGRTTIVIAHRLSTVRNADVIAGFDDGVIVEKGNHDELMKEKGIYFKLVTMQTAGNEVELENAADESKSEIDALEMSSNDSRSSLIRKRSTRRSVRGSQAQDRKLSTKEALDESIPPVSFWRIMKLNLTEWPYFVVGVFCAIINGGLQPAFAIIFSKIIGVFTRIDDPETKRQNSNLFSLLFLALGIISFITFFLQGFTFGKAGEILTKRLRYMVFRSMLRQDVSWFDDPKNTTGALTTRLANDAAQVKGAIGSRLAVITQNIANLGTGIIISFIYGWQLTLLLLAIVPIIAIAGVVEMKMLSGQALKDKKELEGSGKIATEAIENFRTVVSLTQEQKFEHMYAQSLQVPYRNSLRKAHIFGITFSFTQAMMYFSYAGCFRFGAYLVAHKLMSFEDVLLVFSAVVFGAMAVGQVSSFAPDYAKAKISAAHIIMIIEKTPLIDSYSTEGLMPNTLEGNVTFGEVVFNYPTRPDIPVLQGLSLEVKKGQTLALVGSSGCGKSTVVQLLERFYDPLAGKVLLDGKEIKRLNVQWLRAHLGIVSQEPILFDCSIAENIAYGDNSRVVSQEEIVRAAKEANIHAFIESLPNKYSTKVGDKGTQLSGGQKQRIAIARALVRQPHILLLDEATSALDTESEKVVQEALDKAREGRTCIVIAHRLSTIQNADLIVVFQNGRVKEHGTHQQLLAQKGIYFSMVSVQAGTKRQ
Experimental: LLC-PK1-P-gp cells (passage no. 25–28) were seeded onto collagen-coated permeable support (1.0 μm pore size) in 24-well plates at a density of 2.5 × 10^4 cells/insert and grown for 5 days with TEER values of over 500 Ω·cm^2 [24]. The A to B transport and B to A transport of GRg3, GRh2, CK, PPD, GRg1, GRh1, and PPT (20 μM each) were measured as previously described. The concentration dependency in the B to A transport of GRh2, CK, PPD, and PPT was measured in the range of 6.25–200 μM for GRh2, CK, PPD, and PPT.
as §1, §2
To measure the kinetic parameters of the concentration dependence on the P-gp-mediated ginsenoside efflux, the ginsenoside transport rate in the B to A direction (ν) versus the ginsenoside concentration (S) plot was fitted in the Michaelis–Menten Equation (2) using Sigma Plot (version 12.0, Systat Software Inc. Chicago, IL, USA). (2) ν=Vmax×S/Km+S

[3] = rat, in vivo, po; cited from earlier work
[4] = Pharmacokinetic study of ginsenosides in healthy humans after repeated oral RGE with or without LAB; type: in vivo, human; conditions: male, human, in vivo, po
Experimental: A single-sequence study consisting of two periods was conducted on five healthy male subjects (body weight > 50 kg and age > 19 years) for 29 days. During the first period of the study (RGE treatment group), three pouches of RGE (30 mL, 104.1 mg of total ginsenosides) were administered to 5 subjects once daily for 14 days. On the 14th day, the subjects were admitted to the Clinical Trial Center of KNUH at 7 AM and underwent the last RGE administration at approximately 8–9 AM. Blood samples (approximately 3 mL) were collected at 0, 4, 6, 8, 10, 12, 13, 14, and 24 h after the last dose. A saline-locked angiocatheter was placed on the forearm of each subject’s hand. After discarding 1 mL of blood derived from the catheter, 3 mL of blood was drawn into a vacutainer tube containing heparin and centrifuged at 3000× g for 10 min. The supernatant plasma samples were stored at −80 °C until ginsenoside analysis.
In the second half of the study (RGE + LAB treatment group), 3 pouches of RGE (30 mL, 104.1 mg of total ginsenosides) and 1 pouch of LAB (1 billion CFU/2 g) were co-administered once daily for 14 days. On the […], the subjects were admitted to the Clinical Trial Center of KNUH at 7 AM and received the last red ginseng dose at approximately 8–9 AM. Blood samples (approximately 3 mL) were withdrawn at 0, 4, 6, 8, 10, 12, 13, 14, and 24 h intervals after the last dose and centrifuged at 3000× g for 10 min; the supernatant plasma samples were stored at −80 °C.
Briefly, to analyze GRb1, GRb2, GRc, GRd, GRe, GRf, GRg1, GRg3, GF1, and GF2, 400 μL of an internal standard (IS; 0.05 ng/mL berberine in methanol) was added to 100 μL of plasma. The mixture was vortexed for 15 min and centrifuged at 16,000× g for 5 min. After centrifugation, 400 μL of the supernatant was evaporated using a speed-dry vacuum concentrator (Christ, Osterode am Harz, Germany). The residue was reconstituted using 200 μL of 70% methanol supplemented with 0.1% formic acid, and a 10 μL aliquot was injected into the LC-MS/MS system. Chromatographic separation was performed using a Polar RP column (150 × 2.0 mm, 4.0 μm particle size; Phenomenex, Torrance, CA, USA) using a mobile phase consisting of 0.1% formic acid in water (phase A) and 0.1% formic acid in methanol (phase B). The following elution gradient was used: 69% of phase B for 0–2.0 min, 69–85% of phase B for 2.0–4.0 min, and 85–69% of phase B for 6.0–6.5 min. The flow rate was 0.27 mL/min.
The mixture was vortexed for 10 min and centrifuged at 16,000× g for 5 min. After centrifugation, the samples were frozen at −80 °C for 4 h. The upper layer was transferred to a clean tube and evaporated. The residue was reconstituted using 200 μL of 80% methanol supplemented with 0.1% formic acid, and a 10 μL aliquot was injected into the LC-MS/MS system. Chromatographic separation was performed using a Luna C18 column (150 × 2.0 mm, 3.0 μm particle size; Phenomenex, Torrance, CA, USA) and using a mobile phase consisting of water containing 0.1% formic acid: methanol containing 0.1% formic acid = 8:92 (v/v) at a flow rate of 0.15 mL/min.
The quantification of ginsenosides was carried out using multiple reaction monitoring in positive ionization mode, as previously described.
Finally, pharmacokinetic parameters were calculated using non-compartmental methods (WinNonlin version 5.1; Pharsight Co., Certara, NJ, USA). Statistical analysis was performed by Student’s t-test to compare the two groups using IBM SPSS Statistics for Windows (version 25.0; IBM Corp., Armonk, NY, USA). Differences were considered significant at p < 0.05.

In the case of `CC(C)=CCCC(C)(O)C1CCC2(C)C1C(O)CC1C3(C)CCC(O)C(C)(C)C3CCC12C` (stereo not shown) [PPD, 20(s)-protopanaxadiol], the efflux ratio at 50 µM [1] is given as 2.7, the “AUC fold increase with LAB supplementation compared to control groups” value [2] is given as 2.67 fold and the “Relative abundance / metabolic activity following fermentation of RGE with LAB” value (LAB) is given as “significantly increased”. For the same molecule, the “CLint (intrinsic clearance)” value (P-gp; P-gp-mediated B to A transport in LLC-PK1-P-gp cells) was 5.2 µL/min, the efflux ratio at 20 μM (P-gp; pig, LLC-PK1, LLC-PK1-P-gp cells, 20 μM, B to A Papp divided by A to B Papp, read-out: ER) was 3.3 and the Papp A→B at 20 μM (P-gp; pig, LLC-PK1-P-gp cells, 20 μM, mean ± SD, n = 3, read-out: A to B permeability) was 0.13 ± 0.01 ×10⁻⁶ cm/s. For the same molecule, the Papp B→A at 20 μM (P-gp; pig, LLC-PK1-P-gp cells, 20 μM, mean ± SD, n = 3, read-out: B to A permeability) was 0.42 ± 0.04 ×10⁻⁶ cm/s, the “Oral BA” value [3] was 36.8–48.1% and the “Oral bioavailability (BA)” value [3] was 36.8–48.1%. For the same molecule, the AUC ([4]; 104.1 mg) was 130 ± 39.9 ng·h/mL, the Cmax ([4]; Cmax) was 7.6 ± 1.7 ng/mL and the MRT ([4]; MRT) was 18.6 ± 5 h. For the same molecule, the Tmax ([4]; Tmax) was 16 ± 18.5 h.

— article PMC9775652, “Concomitant Administration of Red Ginseng Extract with Lactic Acid Bacteria Increases the Plasma Concentration of Deglycosylated Ginsenosides in Healthy Human Subjects” (Biomolecules, 2022)
